According to ChEMBL document CHEMBL4311943, “3-[(1S,2S,3R)-2,3-Difluoro-1-hydroxy-7-methylsulfonylindan-4-yl]oxy-5-fluorobenzonitrile (PT2977), a Hypoxia-Inducible Factor 2α (HIF-2α) Inhibitor for the Treatment of Clear Cell Renal Cell Carcinoma” (J Med Chem, 2019):
Active and inactive are the calls of the source. The rule behind the calls is not given here.

Tests used:
[1] = target: Potassium/sodium hyperpolarization-activated cyclic nucleotide-gated channel 4 (Homo sapiens) (UniProt Q9Y3Q4); experiment: Activity at human HCN4 at 10 uM
[2] = Cmax in patient with advanced solid tumor at 80 mg, po administered once daily measured on day 15; format: ADME, organism-based; set-up: dose 80 mg, route oral; conditions: human, in vivo
[3] = Plasma concentration in patient with advanced solid tumor at 20 mg, po administered once daily measured on day 15 after 24 hrs; format: ADME, organism-based; conditions: human
[4] = target: Protein kinase C alpha type (Homo sapiens) (UniProt P17252); experiment: Activity at human PKCalpha at 10 uM
[5] = target: Phosphorylase b kinase gamma catalytic chain, liver/testis isoform (Homo sapiens) (UniProt P15735); experiment: Activity at human PhKgamma2 at 10 uM
[6] = target: Prostacyclin receptor (Homo sapiens) (UniProt P43119); experiment: Activity at human Prostanoid IP1 receptor at 10 uM; format: functional
[7] = target: Histamine H2 receptor (Homo sapiens) (UniProt P25021); experiment: Activity at human H2 receptor at 10 uM
[8] = target: Protein kinase C gamma type (Homo sapiens) (UniProt P05129); experiment: Activity at human PKCgamma at 10 uM
[9] = target: CDK3/Cyclin E (Homo sapiens) (UniProt P24864+Q00526); experiment: Activity at human CDK3/cyclinE at 10 uM; format: protein-complex assay
[10] = Drug level in plasma of SCID Beige mouse xenografted with human 786-O cells at 3 mg/kg, po administered twice daily via gavage for 3 days measured 12 hrs post-last dose; format: ADME, organism-based
[11] = target: Serine/threonine-protein kinase D1 (Homo sapiens) (UniProt Q15139); experiment: Activity at human PKCmu at 10 uM
[12] = Dose normalized AUClast in Sprague-Dawley rat at 10 mg/kg, po administered via gavage by UPLC-MS analysis; format: ADME, organism-based; conditions: in vivo
[13] = Half life in Sprague-Dawley rat at 1 mg/kg, iv by UPLC-MS analysis; format: ADME, organism-based; conditions: in vivo
[14] = target: Tyrosine-protein phosphatase non-receptor type 1 (Homo sapiens) (UniProt P18031); experiment: Activity at human PTP1B at 10 uM
[15] = target: Prostaglandin F2-alpha receptor (Homo sapiens) (UniProt P43088); experiment: Activity at human Prostanoid FP receptor at 10 uM
[16] = target: Beta-2 adrenergic receptor (Homo sapiens) (UniProt P07550); experiment: Activity at human beta2 receptor at 10 uM
[17] = target: Tyrosine-protein kinase ABL1 (Homo sapiens) (UniProt P00519); experiment: Activity at human Abl at 10 uM
[18] = AUClast in patient with advanced solid tumor at 20 mg, po administered once daily measured on day 15; format: ADME, organism-based; set-up: dose 20 mg, route oral, time 0 - last; conditions: human, in vivo
[19] = tested on: 786-0; experiment: Antitumor activity against human 786-O cells xenografted in SCID Beige mouse assessed as tumor regression at 0.3 to 3 mg/kg, po administered twice daily via gavage for 3 days measured 12 hrs post-last; format: functional, organism-based
[20] = target: Calcium/calmodulin-dependent protein kinase type II subunit gamma (Homo sapiens) (UniProt Q13555); experiment: Activity at human CAMK2G at 10 uM
[21] = target: Adenosine receptor A3 (Homo sapiens) (UniProt P0DMS8); experiment: Activity at human adenosine A3 receptor at 10 uM
[22] = target: Muscarinic acetylcholine receptor M3 (Homo sapiens) (UniProt P20309); experiment: Activity at human M3 receptor at 10 uM
[23] = target: Potassium voltage-gated channel subfamily KQT member 1 (Homo sapiens, UniProt P51787); experiment: Activity at human KCNQ1 at 10 uM
[24] = target: C5a anaphylatoxin chemotactic receptor 1 (Homo sapiens) (UniProt P21730); experiment: Activity at human C5a receptor at 10 uM
[25] = target: Prokineticin receptor 1 (Homo sapiens) (UniProt Q8TCW9); experiment: Activity at human PK1 receptor at 10 uM
[26] = target: Calcium/calmodulin-dependent protein kinase type II subunit beta (Homo sapiens) (UniProt Q13554); experiment: Activity at human CAMK2B at 10 uM
[27] = target: Cytochrome P450 1A2 (Homo sapiens, UniProt P05177); experiment: Inhibition of CYP1A2 in human liver microsomes up to 50 uM using phenacetin as substrate measured after 10 mins in presence of NADPH by LC-MS/MS analysis; format: ADME
[28] = Volume of distribution at steady state in CD-1 mouse at 3 mg/kg, iv by UPLC-MS analysis; format: ADME, organism-based; conditions: in vivo, read-out: Vdss
[29] = Half life in patient with advanced solid tumor at 160 mg, po administered once daily measured on day 15; format: ADME, organism-based; conditions: human, in vivo
[30] = target: Gonadotropin-releasing hormone receptor (Homo sapiens) (UniProt P30968); experiment: Activity at human GNRH at 10 uM
[31] = target: 5'-AMP-activated protein kinase catalytic subunit alpha-1 (Homo sapiens) (UniProt Q13131); experiment: Activity at human AMPKalpha1 at 10 uM
[32] = target: Protein kinase C beta type (Homo sapiens) (UniProt P05771); experiment: Activity at human PKCbeta2 at 10 uM
[33] = target: Thyrotropin receptor (Homo sapiens) (UniProt P16473); experiment: Activity at human TSH at 10 uM
[34] = target: Sodium channel protein type 5 subunit alpha (Homo sapiens, UniProt Q14524); experiment: Activity at human Nav1.5 at 10 uM
[35] = target: CX3C chemokine receptor 1 (Homo sapiens) (UniProt P49238); experiment: Activity at human CX3CR1 receptor at 10 uM
[36] = target: cGMP-dependent protein kinase 1 (Homo sapiens) (UniProt Q13976); experiment: Activity at human PKG1alpha at 10 uM
[37] = target: C-C chemokine receptor type 1 (Homo sapiens) (UniProt P32246); experiment: Activity at human CCR1 receptor at 10 uM
[38] = Cmin in patient with advanced solid tumor at 120 mg, po administered once daily measured on day 15 measured after 24 hrs; format: ADME, organism-based; conditions: human, in vivo, read-out: Cmin
[39] = target: CDK2/Cyclin A2 (Homo sapiens) (UniProt P24941+P20248); experiment: Activity at human CDK2/cyclinA at 10 uM; format: protein-complex assay
[40] = AUClast in patient with advanced solid tumor at 240 mg, po administered once daily measured on day 15; format: ADME, organism-based; set-up: dose 240 mg, time 0 - last, route oral; conditions: human, in vivo
[41] = target: Cannabinoid receptor 2 (Homo sapiens) (UniProt P34972); experiment: Activity at human CB2 receptor at 10 uM
[42] = organism: Homo sapiens; experiment: Activity at human Proteinase activated receptor at 10 uM
[43] = target: Alpha-1D adrenergic receptor (Homo sapiens) (UniProt P25100); experiment: Activity at human alpha1D receptor at 10 uM
[44] = target: Neuromedin-U receptor 1 (Homo sapiens) (UniProt Q9HB89); experiment: Activity at human NMU1 receptor at 10 uM
[45] = target: Alpha-2A adrenergic receptor (Homo sapiens) (UniProt P08913); experiment: Activity at human alpha2A receptor at 10 uM

cGMP-dependent protein kinase 1 (Homo sapiens), sequence (Q13976 whole entry): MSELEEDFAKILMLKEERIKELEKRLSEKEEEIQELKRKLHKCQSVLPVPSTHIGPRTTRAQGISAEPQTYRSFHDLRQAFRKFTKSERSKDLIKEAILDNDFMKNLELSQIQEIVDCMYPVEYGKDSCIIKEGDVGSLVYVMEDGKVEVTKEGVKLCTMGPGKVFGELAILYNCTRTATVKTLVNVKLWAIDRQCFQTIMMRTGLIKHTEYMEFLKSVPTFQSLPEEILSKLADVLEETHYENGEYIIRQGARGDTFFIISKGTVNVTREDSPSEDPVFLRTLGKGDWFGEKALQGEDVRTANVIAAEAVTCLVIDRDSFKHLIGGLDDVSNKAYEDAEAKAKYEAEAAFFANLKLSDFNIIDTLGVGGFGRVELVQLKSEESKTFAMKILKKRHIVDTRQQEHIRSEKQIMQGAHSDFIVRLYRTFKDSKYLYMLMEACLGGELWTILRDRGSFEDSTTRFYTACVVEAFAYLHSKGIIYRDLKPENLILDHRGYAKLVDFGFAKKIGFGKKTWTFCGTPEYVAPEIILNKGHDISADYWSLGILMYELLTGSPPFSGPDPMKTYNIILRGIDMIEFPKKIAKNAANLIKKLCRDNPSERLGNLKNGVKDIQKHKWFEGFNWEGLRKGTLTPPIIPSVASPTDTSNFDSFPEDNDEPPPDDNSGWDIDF
Thyrotropin receptor (Homo sapiens), sequence (P16473 whole entry, looked up): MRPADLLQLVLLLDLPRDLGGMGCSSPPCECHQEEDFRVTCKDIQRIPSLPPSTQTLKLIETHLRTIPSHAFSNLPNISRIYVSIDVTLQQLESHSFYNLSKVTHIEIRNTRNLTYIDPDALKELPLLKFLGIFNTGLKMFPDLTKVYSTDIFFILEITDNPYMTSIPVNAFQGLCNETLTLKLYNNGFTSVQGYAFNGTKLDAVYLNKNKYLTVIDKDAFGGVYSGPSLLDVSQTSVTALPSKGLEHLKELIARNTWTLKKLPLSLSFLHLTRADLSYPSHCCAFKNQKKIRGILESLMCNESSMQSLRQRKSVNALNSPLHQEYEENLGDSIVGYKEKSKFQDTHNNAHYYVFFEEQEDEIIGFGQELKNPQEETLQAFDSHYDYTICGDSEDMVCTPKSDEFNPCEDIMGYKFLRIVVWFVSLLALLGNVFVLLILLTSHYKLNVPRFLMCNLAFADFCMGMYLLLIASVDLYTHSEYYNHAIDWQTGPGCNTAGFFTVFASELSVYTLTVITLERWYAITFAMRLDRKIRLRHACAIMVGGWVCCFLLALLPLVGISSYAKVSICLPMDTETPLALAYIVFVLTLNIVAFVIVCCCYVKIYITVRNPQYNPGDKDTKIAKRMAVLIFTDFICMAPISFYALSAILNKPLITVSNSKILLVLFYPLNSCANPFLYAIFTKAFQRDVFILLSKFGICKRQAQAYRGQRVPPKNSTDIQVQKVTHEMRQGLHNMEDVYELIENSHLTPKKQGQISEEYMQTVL
Tyrosine-protein kinase ABL1 (Homo sapiens), sequence (P00519 whole entry): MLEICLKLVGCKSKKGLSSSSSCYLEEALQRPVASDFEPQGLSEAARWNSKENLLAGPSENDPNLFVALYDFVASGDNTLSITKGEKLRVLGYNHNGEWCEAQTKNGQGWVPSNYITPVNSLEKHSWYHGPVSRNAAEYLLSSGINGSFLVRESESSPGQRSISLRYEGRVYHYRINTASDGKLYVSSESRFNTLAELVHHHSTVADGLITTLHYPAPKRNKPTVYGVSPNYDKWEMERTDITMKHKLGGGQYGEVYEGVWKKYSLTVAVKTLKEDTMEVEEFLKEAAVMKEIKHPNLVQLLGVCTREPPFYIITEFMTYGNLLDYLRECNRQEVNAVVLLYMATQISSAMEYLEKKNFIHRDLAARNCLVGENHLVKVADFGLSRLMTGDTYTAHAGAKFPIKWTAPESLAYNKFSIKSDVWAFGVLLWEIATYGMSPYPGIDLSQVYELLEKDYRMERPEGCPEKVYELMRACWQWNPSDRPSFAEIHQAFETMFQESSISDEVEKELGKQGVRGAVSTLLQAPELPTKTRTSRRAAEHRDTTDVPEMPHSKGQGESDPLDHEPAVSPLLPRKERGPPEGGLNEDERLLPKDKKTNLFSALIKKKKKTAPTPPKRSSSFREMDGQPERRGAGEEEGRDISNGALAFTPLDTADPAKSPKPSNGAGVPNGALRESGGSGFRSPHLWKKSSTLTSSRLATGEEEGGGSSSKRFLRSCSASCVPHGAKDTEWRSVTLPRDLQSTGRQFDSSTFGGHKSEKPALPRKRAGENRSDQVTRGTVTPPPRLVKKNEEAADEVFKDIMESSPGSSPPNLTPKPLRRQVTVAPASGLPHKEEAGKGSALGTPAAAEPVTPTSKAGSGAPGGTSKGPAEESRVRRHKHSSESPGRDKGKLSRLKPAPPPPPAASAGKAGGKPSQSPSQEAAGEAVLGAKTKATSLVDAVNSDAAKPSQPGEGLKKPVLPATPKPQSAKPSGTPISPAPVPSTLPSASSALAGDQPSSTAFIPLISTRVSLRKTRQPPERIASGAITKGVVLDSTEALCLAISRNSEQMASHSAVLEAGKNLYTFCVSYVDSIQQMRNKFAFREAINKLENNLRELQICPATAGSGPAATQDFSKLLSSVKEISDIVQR
5'-AMP-activated protein kinase catalytic subunit alpha-1 (Homo sapiens), sequence (Q13131 whole entry, looked up): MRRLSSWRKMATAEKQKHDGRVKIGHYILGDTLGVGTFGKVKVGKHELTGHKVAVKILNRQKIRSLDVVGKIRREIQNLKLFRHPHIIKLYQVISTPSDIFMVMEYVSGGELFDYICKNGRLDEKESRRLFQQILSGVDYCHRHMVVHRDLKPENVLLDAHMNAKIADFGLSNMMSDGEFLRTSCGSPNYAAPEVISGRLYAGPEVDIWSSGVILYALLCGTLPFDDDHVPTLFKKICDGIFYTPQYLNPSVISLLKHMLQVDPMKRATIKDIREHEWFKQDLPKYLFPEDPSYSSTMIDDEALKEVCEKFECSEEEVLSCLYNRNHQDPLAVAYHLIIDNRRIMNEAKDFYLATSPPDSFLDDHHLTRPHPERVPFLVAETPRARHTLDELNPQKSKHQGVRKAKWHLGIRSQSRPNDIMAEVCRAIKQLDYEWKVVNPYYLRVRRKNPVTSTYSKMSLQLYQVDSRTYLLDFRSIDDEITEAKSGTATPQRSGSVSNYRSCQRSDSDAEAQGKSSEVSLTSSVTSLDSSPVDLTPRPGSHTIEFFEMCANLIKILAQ
Gonadotropin-releasing hormone receptor (Homo sapiens), sequence (P30968 whole entry): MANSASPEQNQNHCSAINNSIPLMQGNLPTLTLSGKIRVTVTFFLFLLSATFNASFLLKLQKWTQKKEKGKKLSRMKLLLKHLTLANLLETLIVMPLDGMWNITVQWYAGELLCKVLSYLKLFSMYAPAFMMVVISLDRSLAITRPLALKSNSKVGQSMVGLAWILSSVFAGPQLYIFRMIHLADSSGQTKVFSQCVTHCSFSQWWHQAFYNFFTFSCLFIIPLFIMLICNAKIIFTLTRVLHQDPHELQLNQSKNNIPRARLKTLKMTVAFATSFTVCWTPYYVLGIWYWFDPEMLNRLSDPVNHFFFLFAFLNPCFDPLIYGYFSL
CDK3/Cyclin E (Homo sapiens), sequence (P24864 whole entry, looked up): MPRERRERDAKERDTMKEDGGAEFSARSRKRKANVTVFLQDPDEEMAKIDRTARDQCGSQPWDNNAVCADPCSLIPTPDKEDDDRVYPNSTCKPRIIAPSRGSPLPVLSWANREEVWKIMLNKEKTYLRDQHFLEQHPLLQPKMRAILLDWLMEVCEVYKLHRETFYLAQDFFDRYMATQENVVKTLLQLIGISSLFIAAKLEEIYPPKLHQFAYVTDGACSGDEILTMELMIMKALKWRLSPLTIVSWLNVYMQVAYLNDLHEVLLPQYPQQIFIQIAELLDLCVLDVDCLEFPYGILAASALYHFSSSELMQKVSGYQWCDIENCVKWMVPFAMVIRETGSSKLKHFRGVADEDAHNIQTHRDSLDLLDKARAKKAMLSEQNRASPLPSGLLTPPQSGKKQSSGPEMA
CDK3/Cyclin E (Homo sapiens), sequence (Q00526 whole entry, looked up): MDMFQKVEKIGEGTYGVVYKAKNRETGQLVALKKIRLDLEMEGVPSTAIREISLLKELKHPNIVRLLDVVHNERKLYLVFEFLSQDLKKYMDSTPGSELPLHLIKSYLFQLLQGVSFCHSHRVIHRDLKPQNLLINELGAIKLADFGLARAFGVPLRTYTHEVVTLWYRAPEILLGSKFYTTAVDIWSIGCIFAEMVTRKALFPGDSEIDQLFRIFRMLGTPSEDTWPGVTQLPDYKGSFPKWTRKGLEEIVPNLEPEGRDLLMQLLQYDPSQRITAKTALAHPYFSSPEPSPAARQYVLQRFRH
Prokineticin receptor 1 (Homo sapiens), sequence (Q8TCW9 whole entry): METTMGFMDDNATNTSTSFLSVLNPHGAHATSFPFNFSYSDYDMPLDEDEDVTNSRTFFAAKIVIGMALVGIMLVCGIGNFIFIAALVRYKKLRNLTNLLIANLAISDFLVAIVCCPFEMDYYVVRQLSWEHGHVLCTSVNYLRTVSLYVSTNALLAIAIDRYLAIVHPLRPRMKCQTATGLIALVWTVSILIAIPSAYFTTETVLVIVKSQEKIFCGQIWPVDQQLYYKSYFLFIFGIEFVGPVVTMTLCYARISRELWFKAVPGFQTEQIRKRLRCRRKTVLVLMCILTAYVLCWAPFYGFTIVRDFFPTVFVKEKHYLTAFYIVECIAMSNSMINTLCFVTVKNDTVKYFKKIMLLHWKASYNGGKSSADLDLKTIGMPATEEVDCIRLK
Tyrosine-protein phosphatase non-receptor type 1 (Homo sapiens), sequence (P18031 whole entry): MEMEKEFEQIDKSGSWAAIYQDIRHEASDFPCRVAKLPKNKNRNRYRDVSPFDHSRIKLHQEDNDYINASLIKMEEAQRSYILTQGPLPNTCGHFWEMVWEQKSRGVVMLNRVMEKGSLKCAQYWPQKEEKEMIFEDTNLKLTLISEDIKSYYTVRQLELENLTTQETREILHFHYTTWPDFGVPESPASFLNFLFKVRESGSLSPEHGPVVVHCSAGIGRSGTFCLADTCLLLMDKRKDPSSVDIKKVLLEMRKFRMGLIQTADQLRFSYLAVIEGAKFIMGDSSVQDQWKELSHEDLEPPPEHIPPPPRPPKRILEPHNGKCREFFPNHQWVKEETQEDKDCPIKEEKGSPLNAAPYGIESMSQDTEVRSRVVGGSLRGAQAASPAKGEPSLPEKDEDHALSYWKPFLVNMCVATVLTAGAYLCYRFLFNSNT

CS(=O)(=O)c1ccc(Oc2cc(F)cc(C#N)c2)c2c1[C@H](O)[C@H](F)[C@@H]2F [BELZUTIFAN]
Activity [1]: inactive
Cmax [2]: 1400 ng/mL
concentration at 24 h [3]: 60 ng/mL
Activity [4]: inactive
Activity [5]: inactive
Activity [6]: inactive
Activity [7]: inactive
Activity [8]: inactive
Activity [9]: inactive
concentration at 12 h [10]: 59 ng/mL
Activity [11]: inactive
AUClast/dose [12]: 13 µM·h
half-life [13]: 1.4 h
Activity [14]: inactive
Activity [15]: inactive
Activity [16]: inactive
Activity [17]: inactive
AUC(0-t) [18]: 2100 ng·h/mL
Activity [19]: Active
Activity [20]: inactive
Activity [21]: inactive
Activity [22]: inactive
Activity [23]: Not Active
Activity [24]: inactive
Activity [25]: inactive
Activity [26]: inactive
inhibition (INH) [27]: Not Active
Vd [28]: 4.9 L/kg
half-life [29]: 12.2 h
Activity [30]: inactive
Activity [31]: inactive
Activity [32]: inactive
Activity [33]: inactive
Activity [34]: Not Active
Activity [35]: inactive
Activity [36]: inactive
Activity [37]: inactive
concentration at 24 h [38]: 500 ng/mL
Activity [39]: inactive
AUC(0-t) [40]: 28000 ng·h/mL
Activity [41]: inactive
Activity [42]: inactive
Activity [43]: inactive
Activity [44]: inactive
Activity [45]: inactive
